Test results published in article PMC10950498, “Ligands of HMG-like dorsal switch protein 1 of Spodoptera exigua leads to mortality in diamondback moth, Plutellaxylostella” (Heliyon, 2024).

What follows are compounds tested against T1, HMG-like dorsal switch protein 1 (rSe-DSP1) (assay: thermal shift assay with fitted Kd).
T1 construct: recombinant DSP1 protein (rSe-DSP1)
Format: binding, Spodoptera exigua

Which Kd does the source give for N#Cc1ccccc1C(=O)O [CBA, o-Cyanobenzoic acid] here?
The Kd was 246 µM.

For CCOc1cc(O)ccc1OC [EMP, 3-Ethoxy-4-Methoxyphenol], which Kd is on record?
Its Kd is 148 µM.

Which Kd does the source give for O=C1NC(=O)c2ccccc21 [PM, Phthalimide] here?
Its Kd is 197 µM.
